SMILES strings stand for the structures. A value given as a limit tells only on which side of the number the result lay.

The results in this text go back to US20250171438A1 (Agios Pharmaceuticals, Inc., priority 2022, published 2025).

For one assay, the target named is T1, human PAH with the R408W mutation (Homo sapiens, UniProt P00439, R408W).
T1 construct: expressed in transfected cells
T1 sequence (P00439 1-452 R408W): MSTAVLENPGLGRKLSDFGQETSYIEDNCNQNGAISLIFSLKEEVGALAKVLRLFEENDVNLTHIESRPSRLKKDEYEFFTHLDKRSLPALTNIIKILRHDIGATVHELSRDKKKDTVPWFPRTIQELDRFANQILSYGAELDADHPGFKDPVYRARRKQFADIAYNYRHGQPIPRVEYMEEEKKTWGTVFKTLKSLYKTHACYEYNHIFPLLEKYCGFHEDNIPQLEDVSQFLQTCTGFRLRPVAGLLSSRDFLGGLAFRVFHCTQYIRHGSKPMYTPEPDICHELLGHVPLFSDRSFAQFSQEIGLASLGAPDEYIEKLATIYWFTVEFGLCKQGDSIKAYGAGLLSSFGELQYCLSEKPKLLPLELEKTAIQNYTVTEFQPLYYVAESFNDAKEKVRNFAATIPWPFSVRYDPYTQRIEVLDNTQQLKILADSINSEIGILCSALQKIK
In words: Cell Based Phenylalanine Flux Assay. Set-up: scale not given here. The settings on record: A375 cells expressing human R408W PAH; 24 hrs compound incubation; 13C-Tyrosine by LC-MS; average where tested multiple times; read-out: AC50.
`CC(C)(F)c1ncc(C(=O)N2CCc3[nH]cnc3[C@H]2c2nc3c(F)cccc3s2)o1` [Example 1487, (S)-(4-(4-fluorobenzo[d]thiazol-2-yl)-6,7-dihydro-1H-imidazo[4,5-c]pyridin-5(4H)-yl)(2-(2-fluoropropan-2-yl)oxazol-5-yl)methanone]: the AC50 was below 0.5 µM.
As for `O=C(c1cnn2ccc(Br)cc12)N1CCc2[nH]cnc2[C@H]1c1nc2ccc(Br)cc2[nH]1` [Example 997, (S)-(4-(6-bromo-1H-benzo[d]imidazol-2-yl)-6,7-dihydro-1H-imidazo[4,5-c]pyridin-5(4H)-yl)(5-bromopyrazolo[1,5-a]pyridin-3-yl)methanone], the AC50 lay within 1 to 5 µM.
Consider `O=C(c1nnc(NC2CC2)o1)N1CCc2[nH]cnc2[C@@H]1c1nc2ccccc2s1` [Example 1594, (R)-(4-(benzo[d]thiazol-2-yl)-6,7-dihydro-1H-imidazo[4,5-c]pyridin-5(4H)-yl)(5-(cyclopropylamino)-1,3,4-oxadiazol-2-yl)methanone], for which the AC50 was in the range of 1 to 5 µM.
As to `Cn1ncnc1C(=O)N1CCc2[nH]cnc2[C@H]1c1nc2c(C(F)(F)F)cccc2s1` [Example 2101, (S)-(1-methyl-1H-1,2,4-triazol-5-yl)(4-(4-(trifluoromethyl)benzo[d]thiazol-2-yl)-6,7-dihydro-1H-imidazo[4,5-c]pyridin-5(4H)-yl)methanone], the AC50 lay in the range of 0.5 to 1 µM.
On the same count and under the same terms, the figure for `O=C(Cc1nc2ccccc2s1)N1CCc2[nH]cnc2[C@H]1c1nc2ccccc2[nH]1` [Example 905] is 1 to 5 µM.
Consider `Cc1nn(C)c(C)c1-c1ncc(C(=O)N2CCc3[nH]cnc3[C@H]2c2nc3ccccc3s2)s1` [Example 1405], for which the AC50 was below 0.5 µM.
Still for that read-out and setting: next, `CC(C)(O)c1nc(C(F)(F)F)c(C(=O)N2CCCc3[nH]cnc3[C@@H]2c2nc3ccccc3s2)o1` [Example 2124, (R)-(4-(benzo[d]thiazol-2-yl)-7,8-dihydroimidazo[4,5-c]azepin-5(1H,4H,6H)-yl)(2-(2-hydroxypropan-2-yl)-4-(trifluoromethyl)oxazol-5-yl)methanone]: 1 to 5 µM.
On the same count and under the same terms, the figure for `O=C(c1cnn2ccc(Br)cc12)N1CCc2[nH]cnc2[C@H]1c1nc2ccc(F)cc2s1` [Example 1137] is 0.5 to 1 µM; for `O=C(c1cnn2cc(CN3CCOCC3)ccc12)N1CCc2[nH]cnc2[C@@H]1c1nc2ccccc2s1` [Example 2156, (R)-(4-(benzo[d]thiazol-2-yl)-6,7-dihydro-1H-imidazo[4,5-c]pyridin-5(4H)-yl)(6-(morpholinomethyl)pyrazolo[1,5-a]pyridin-3-yl)methanone] it is above 5 µM.
The same measure, in the same setting: the figure for `Cc1ccc2nc([C@@H]3c4nc[nH]c4CCN3C(=O)c3cncs3)sc2c1` [Example 1303, (S)-(4-(6-methylbenzo[d]thiazol-2-yl)-6,7-dihydro-1H-imidazo[4,5-c]pyridin-5(4H)-yl)(thiazol-5-yl)methanone] is 0.5 to 1 µM; for `Cc1nn(C)c(Cl)c1C(=O)N1CCc2[nH]cnc2[C@@H]1c1nc2c(F)cccc2s1` [Example 1741, (R)-(5-chloro-1,3-dimethyl-1H-pyrazol-4-yl)(4-(4-fluorobenzo[d]thiazol-2-yl)-6,7-dihydro-1H-imidazo[4,5-c]pyridin-5(4H)-yl)methanone] it is 1 to 5 µM.
Turning to `O=C(c1ocnc1-c1ccccn1)N1CCc2[nH]cnc2[C@@H]1c1nc2c(F)cccc2s1` [Example 1524, (R)-(4-(4-fluorobenzo[d]thiazol-2-yl)-6,7-dihydro-1H-imidazo[4,5-c]pyridin-5(4H)-yl)(4-(pyridin-2-yl)oxazol-5-yl)methanone], the AC50 is above 5 µM.
The same measure, in the same setting: next, `Cc1nnc(C(=O)N2CCc3[nH]cnc3[C@H]2c2nc3cccc(F)c3s2)s1` [Example 1331, (S)-(4-(7-fluorobenzo[d]thiazol-2-yl)-6,7-dihydro-1H-imidazo[4,5-c]pyridin-5(4H)-yl)(5-methyl-1,3,4-thiadiazol-2-yl)methanone]: 0.5 to 1 µM; `C[C@@H](O)c1nc(C(F)F)c(C(=O)N2CCc3[nH]cnc3[C@H]2c2nc3ccccc3s2)o1` [Example 2091]: below 0.5 µM; `CC(C)(O)Cc1nc(C(F)F)c(C(=O)N2CCc3[nH]cnc3[C@H]2c2nc3c(F)cccc3s2)o1` [Example 2061]: below 0.5 µM.
Still for that read-out and setting: the figure for `CC(C)(O)c1ncc(C(=O)N2CC3(CC3)c3[nH]cnc3[C@@H]2c2nc3ccccc3s2)o1` [Example 1678, (R)-(4′-(benzo[d]thiazol-2-yl)spiro[cyclopropane-1,7′-imidazo[4,5-c]pyridin]-5′(1′H,4′H,6′H)-yl)(2-(2-hydroxypropan-2-yl)oxazol-5-yl)methanone] is 1 to 5 µM; for `O=C(c1cn[nH]c1C(F)F)N1CCc2[nH]cnc2[C@@H]1c1nc2c(F)cccc2s1` [Example 1860, (R)-(5-(difluoromethyl)-1H-pyrazol-4-yl)(4-(4-fluorobenzo[d]thiazol-2-yl)-6,7-dihydro-1H-imidazo[4,5-c]pyridin-5(4H)-yl)methanone] it is 1 to 5 µM.
Same read-out and setting: next, `O=C(c1nnc(-c2cnn(S(=O)(=O)C3CC3)c2)o1)N1CCc2[nH]cnc2[C@@H]1c1nc2ccccc2s1` [Example 1940, (R)-(4-(benzo[d]thiazol-2-yl)-6,7-dihydro-1H-imidazo[4,5-c]pyridin-5(4H)-yl)(5-(1-(cyclopropylsulfonyl)-1H-pyrazol-4-yl)-1,3,4-oxadiazol-2-yl)methanone]: 1 to 5 µM; `Cn1ccc(-c2nnc(C(=O)N3CCc4[nH]cnc4[C@@H]3c3nc4ccccc4s3)o2)n1` [Example 1806, (R)-(4-(benzo[d]thiazol-2-yl)-6,7-dihydro-1H-imidazo[4,5-c]pyridin-5(4H)-yl)(5-(1-methyl-1H-pyrazol-3-yl)-1,3,4-oxadiazol-2-yl)methanone]: 1 to 5 µM.
With `COc1ccn2ncc(C(=O)N3CCc4[nH]cnc4[C@@H]3c3nc4c(F)cccc4s3)c2c1` [Example 1198, (R)-(4-(4-fluorobenzo[d]thiazol-2-yl)-6,7-dihydro-1H-imidazo[4,5-c]pyridin-5(4H)-yl)(5-methoxypyrazolo[1,5-a]pyridin-3-yl)methanone], the AC50 lay in the range of 1 to 5 µM.
Still for that read-out and setting: the figure for `O=C(c1oc(C2CC(F)(F)C2)nc1C(F)F)N1CCc2[nH]cnc2[C@H]1c1nc2ccccc2s1` [Example 1786] is below 0.5 µM.

Staying with this assay, now noted: A375 cells expressing human R408W PAH; 24 hrs with compound; 13C-Tyrosine by LC-MS; average where tested multiple times.
In the case of `NC(=O)Cn1cc(C(=O)N2CCc3[nH]cnc3C2c2nc3c(F)cccc3s2)c(Cl)n1` (stereo not drawn), the half-maximal activity concentration (AC50) result is on record as “E, E”.
The same measure, in the same setting: the entry for `COCCc1ncc(C(=O)N2CC(C)c3[nH]cnc3C2c2nc3ccccc3s2)o1` [(4R,7R) diastereomer of 2-[5-[2-(2-methoxyethyl)-1,3-oxazole] is “E, E”.

Still in this assay, the particulars now being: A375 cells expressing human R408W PAH; 24 hrs with compound; 13C-Tyrosine by LC-MS; average where tested multiple times; read-out: AC50.
Consider `O=C(N1CCC(O)C1)N1CCc2[nH]cnc2C1c1nc2ccccc2s1` [4S enantiomer of (3R)-1-[4-(1,3-benzothiazol-2-yl)-1H,4H,5H,], for which the AC50 is 1 to 5 µM.
The same measure, in the same setting: the figure for `O=C(c1cnn2cc(Cc3ccccc3)ccc12)N1CCc2[nH]cnc2C1c1nc2ccccc2s1` (stereo not drawn) is 1 to 5 µM; for `O=C(c1ccno1)N1CCc2[nH]cnc2[C@H]1c1nc2ccccc2[nH]1` [(S)-(4-(1H-benzo[d]imidazol-2-yl)-6,7-dihydro-1H-imidazo[4,5-c]pyridin-5(4H)-yl)(isoxazol-5-yl)methanone] it is 1 to 5 µM; for `O=C(c1ccon1)N1CCc2[nH]cnc2C1c1nc2ccc(F)cc2[nH]1` (stereo not drawn) it is 1 to 5 µM.
Take `O=C(CCCc1nccs1)N1CCc2[nH]cnc2[C@H]1c1nc2ccccc2[nH]1` [(S)-1-(4-(1H-benzo[d]imidazol-2-yl)-1,4,6,7-tetrahydro-5H-imidazo[4,5-c]pyridin-5-yl)-4-(thiazol-2-yl)butan-1-one]: the AC50 fell in the range of 1 to 5 µM.
Still for that read-out and setting: next, `COCc1ccc2c(C(=O)N3CC4(CC4)c4[nH]cnc4C3c3nc4ccccc4s3)cnn2c1` (stereo not drawn): above 5 µM; `O=C(Cc1cscn1)N1CCc2[nH]cnc2[C@H]1c1nc2ccccc2[nH]1` [(S)-1-(4-(1H-benzo[d]imidazol-2-yl)-6,7-dihydro-1H-imidazo[4,5-c]pyridin-5(4H)-yl)-2-(thiazol-4-yl)ethanone]: 1 to 5 µM.
In the case of `O=C(c1ncc[nH]1)N1CCc2[nH]cnc2C1c1nc2ccccc2[nH]1` (stereo not drawn), the AC50 is above 5 µM.
Same read-out and setting: next, `O=C(c1cnn2ccc(Cl)cc12)N1CCc2[nH]cnc2[C@H]1c1nc2ccccc2[nH]1` [(S)-(4-(1H-benzo[d]imidazol-2-yl)-6,7-dihydro-1H-imidazo[4,5-c]pyridin-5(4H)-yl)(5-chloropyrazolo[1,5-a]pyridin-3-yl)methanone]: 1 to 5 µM; `Cc1nnc(C(=O)N2CCc3[nH]cnc3C2c2nc3ccccc3s2)o1` (stereo not drawn): 1 to 5 µM.
Same read-out and setting: the figure for `O=C(c1cnn2ccc(Br)cc12)N1CCc2[nH]cnc2C1c1nc2ccc(Cl)cc2[nH]1` (stereo not drawn) is 1 to 5 µM; for `Cc1nnc(CCC(=O)N2CCc3[nH]cnc3C2c2nc3ccccc3s2)o1` (stereo not drawn) it is 1 to 5 µM.
The same measure, in the same setting: next, `CC1CN(C(=O)c2cnc(N3CCOCC3)o2)C(c2nc3ccccc3s2)c2nc[nH]c21` (stereo not drawn) [listing 1 of 2 here]: 1 to 5 µM; `O=C(c1nnc(CCN2CCOCC2)o1)N1CCc2[nH]cnc2C1c1nc2ccccc2s1` (stereo not drawn): 1 to 5 µM.
As for `O=C(c1nc2ccccc2s1)N1CCc2[nH]cnc2C1c1nc2ccccc2[nH]1` (stereo not drawn), the AC50 is above 5 µM.
With `CC1CN(C(=O)c2cnc(N3CCOCC3)o2)C(c2nc3ccccc3s2)c2nc[nH]c21` (stereo not drawn) [listing 2 of 2 here], the AC50 is 1 to 5 µM.
